US20240307375A1, “PHARMACEUTICAL COMPOSITION FOR PREVENTING AND/OR TREATING KIDNEY INJURY, AND AUTOPHAGY ACTIVATOR” (OSAKA UNIVERSITY, priority 2021, published 2024)

What was measured:
[1] = test system: p53-positive cells / p62-positive dots (DNA damage, autophagy substrate); assay: p53 and p62 immunostaining of renal cortex after cisplatin administration; type: in vivo, mice; details: cisplatin 15 mg/kg i.p. plus test compound 10 mg/kg orally
Procedure: The kidneys of mice were collected as in Test Example 1. The kidneys were subjected to autoclaving at 120° C. for 10 minutes in a […] citrate buffer (pH of 6.0) for […] and to blocking with 1.5% bovine serum albumin in PBS for 60 minutes. Subsequently, paraffin embedding was performed to prepare section samples of renal cortex of the four groups.
The sections were incubated overnight at 4° C. with p53 or p62 primary antibodies.
For each group (n=2 to 4), the number of p53-positive cells or p62-positive dots were counted in fields at a magnification of 200× (p53) or 400× (p62) to calculate the average values.

[2] = test system: A549 cells; assay: LC3-II Western blotting in A549 cells with or without Bafilomycin A1; type: cell-based, human; details: 10 μM test compound, 6 hours, Bafilomycin A1 250 nM
Procedure: A549 cells (1.0×10^5 cells/well), i.e., human lung tumor cells, were seeded in a 6-well plate containing DMEM medium and cultured for 1 day, and the cells were washed with PBS.
A DMEM medium containing Bafilomycin Al (final concentration: 250 nM; also referred to as “Baf”) (Baf(+)) and a DMEM medium not containing Baf (Baf(−)) were prepared. Additionally, a Baf-containing DMEM medium with DMSO or Compound 011 (the test compound) and a Baf-free DMEM medium with DMSO or Compound 011 (the test compound) were also prepared, thus preparing a total of six different media. The final concentration of DMSO was 0.1% and the final concentration of the test compound was 10 μM. Separately, an Earle's balanced salt solution (EBSS; starvation) containing Baf and an EBSS not containing Baf were also prepared. 3 mL of one of the six types of media and two types of EBSSs was added to each well containing washed cells, followed by culturing for 6 hours. After washing the cells three times with PBS, RIPA buffer was added at 4° C., and the cells were allowed to stand on ice for 30 minute. The cells were then quickly and carefully collected from the wells. After the cells were collected, centrifugation (15000 rpm, 4° C., 30 min) was performed, and the supernatant was collected to obtain a protein solution. […]

[3] = test system: Kidney Injury Induced by Cisplatin Administration; assay: Cisplatin-induced kidney injury in mice, PAS histology of renal cortex; type: in vivo
Procedure: Wild-type male mice were used as test animals. The mice had free access to water and standard mouse chow. […] The same amount of physiological saline was intraperitoneally administered to the control group. A sample liquid was prepared by suspending Compound 011 (test compound) in PBS. […] The same amount of PBS was orally administered to the control group. […] Additionally, the mice that were not administered with cisplatin were treated in a similar manner, and the blood and kidneys were collected. The mice were thus divided into four groups. The mice were perfused transcardially with PBS (pH of 7.4). The collected kidneys were sliced, post-fixed in 4% PFA (paraformaldehyde), and embedded in paraffin or frozen in OCT compound to obtain section samples of renal cortex. The section samples of the four groups were stained with PAS (Periodic acid-Schiff) and observed under an optical microscope (400×) (FIG. 1). The renal tubular injury was quantitatively evaluated using PAS-stained section samples. […] The renal tubular injury was defined to be cellular necrosis, tubular dilatation, and cast formation.

[4] = test system: Kidney Injury Induced by Cisplatin Administration; assay: Plasma creatinine and urea nitrogen in cisplatin-treated mice; type: in vivo
Procedure: Wild-type male mice were used as test animals. […] The same amount of physiological saline was intraperitoneally administered to the control group. […] The same amount of PBS was orally administered to the control group. […] Plasma was obtained from the blood collected from the mice to measure the creatinine concentration and the urea nitrogen concentration (n=2 to 4 for each group). The creatinine concentration was measured by using a BioAssay Systems' Creatinine Assay Kit (DICT-500), and the urea nitrogen concentration was measured by using a Wako BUN-test. […] Additionally, in FIG. 3, “Cre” represents the creatinine concentration and “BUN” represents the serum urea nitrogen concentration.

[5] = test system: autophagy flux (GFP-LC3 dots per proximal tubule); assay: Autophagy flux in kidneys of GFP-LC3 transgenic mice after cisplatin, with or without chloroquine; type: in vivo
Procedure: The test animals were 8-week-old male autophagy-monitoring mice (GFP-LC3 transgenic mice). The mice had free access to water and standard mouse chow.
The test compound (compound 011) was suspended in PBS to prepare a sample liquid.
Six hours before anesthetization of the mice, a chloroquine solution was administered intraperitoneally as a lysosomal inhibitor at 50 μg/g body weight. Separately, a group in which the chloroquine solution was not administered was also prepared. The chloroquine solution was prepared by dissolving chloroquine (Sigma-Aldrich) in distilled water at a concentration of 5 mg/mL.
The autophagy flux was evaluated by quantifying GFP-LC3 dots (GFP-positive dots).
The kidney sections were immunostained with LRP2/Megalin (red), which is a marker for proximal tubular cells, and contrast-stained with DAPI (blue).
The number of GFP-LC3 dots (green) per proximal tubule in each group (n=5) was quantified in 10 high-magnification fields (600×), and the average values were used for evaluation.

[6] = cisplatin 15 mg/kg i.p. plus test compound 10 mg/kg orally, effect on cisplatin-induced increase
[7] = test compound 10 mg/kg orally, no cisplatin

`O=C(O)c1cnc(N2CCN(c3noc4cccc(C(F)(F)F)c34)CC2)c(Cl)c1` [Compound 011, 5-Chloro-6-(4-(4-(trifluoromethyl)benzo[d]isoxazol-3-yl)piperazin-1-yl)nicotinic acid] was tested, and the “number of p53-positive cells” value [1] was “clearly reduced”, the “number of p62-positive dots” value [1] was “clearly reduced” and the “LC3-II protein level with Baf treatment relative to without Baf treatment” value [2] was “significant increase in LC3-II with the Baf treatment”. The “degree of the LC3-II increase with Baf treatment compared with starvation (EBSS)” value [2] was “comparable to that of starvation”, the “renal tubular injury (PAS-stained renal cortex sections)” value ([3]; cisplatin 15 mg/kg i.p. plus test compound 10 mg/kg orally for 3 consecutive days, 3 days after cisplatin) was “clearly attenuated renal tubular injury caused by cisplatin” and the “score of renal tubular injury (PAS injury score)” value ([3]; cisplatin 15 mg/kg i.p. plus test compound 10 mg/kg orally, 10-scale grade) was “clearly attenuated”. The “change in PAS-stained renal cortex versus vehicle administration group” value ([3]; test compound 10 mg/kg orally for 3 days, no cisplatin) was “no apparent change”, the plasma creatinine concentration [4, 6] was “clearly suppressed” and the “serum urea nitrogen (BUN) concentration” value [4, 6] was “clearly suppressed”. The plasma creatinine concentration [4, 7] was “little or no change”, the “serum urea nitrogen (BUN) concentration” value [4, 7] was “little or no change” and the “number of GFP-LC3 dots per proximal tubule” value (shortened to “number … per proximal tubule”) ([5]; cisplatin 15 mg/kg i.p. plus test compound 10 mg/kg orally, 2 days after cisplatin, without chloroquine) was “a decrease in GFP-LC3 dots”. For the same compound, the “number … per proximal tubule” value ([5]; cisplatin plus test compound 10 mg/kg orally plus chloroquine 50 μg/g i.p. 6 hours before anesthetization) was “significantly increased”.

With `N.N.[Cl][Pt][Cl]` [cisplatin, reference compound] the “number … per proximal tubule” value ([5]; cisplatin 15 mg/kg i.p. alone, without chloroquine) was “increased GFP-LC3 dots” and the “number … per proximal tubule” value ([5]; cisplatin 15 mg/kg i.p. plus chloroquine on the second day, no test compound) was “no increase in GFP-LC3 dots”.
